Tests used:
TAPBP Tapasin = target: T1, TAPBP Tapasin (Homo sapiens, UniProt O15533); assay: Cysteine liganding, probe competition; assay type: binding
T1 construct: Cells were resuspended in cold PBS on ice and sonicated with a probe sonicator to achieve lysis; endogenous in cells
T1 sequence (O15533 21-448): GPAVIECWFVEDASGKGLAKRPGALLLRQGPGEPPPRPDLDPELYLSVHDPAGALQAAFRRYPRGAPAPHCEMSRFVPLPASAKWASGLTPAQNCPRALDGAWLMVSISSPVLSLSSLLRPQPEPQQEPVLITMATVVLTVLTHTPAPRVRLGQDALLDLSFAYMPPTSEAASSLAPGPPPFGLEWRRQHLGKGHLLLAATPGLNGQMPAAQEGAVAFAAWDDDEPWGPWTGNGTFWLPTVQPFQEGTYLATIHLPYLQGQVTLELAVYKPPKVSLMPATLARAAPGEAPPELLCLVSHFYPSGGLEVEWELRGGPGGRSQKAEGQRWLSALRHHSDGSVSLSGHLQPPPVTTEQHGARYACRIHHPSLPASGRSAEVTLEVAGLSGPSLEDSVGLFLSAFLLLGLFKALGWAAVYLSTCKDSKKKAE
Outline: (§1)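 Lysates from probe-sonicated cells in PBS (5 mg/ml proteome) were exposed to compound for 1 hr at 25° C, then labelled with desthiobiotin iodoacetamide probe (10 mM stock) for 1 hr at 25° C. Probe-tagged peptides were streptavidin-enriched after trypsin digestion.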

[1] = target: T2, TBC1D15 TBC1 domain family member 15 (Homo sapiens, UniProt Q8TC07); assay: Cysteine liganding, probe competition; assay type: binding
T2 construct: Cells were resuspended in cold PBS on ice and sonicated with a probe sonicator to achieve lysis; endogenous in cells
T2 sequence (Q8TC07 1-691): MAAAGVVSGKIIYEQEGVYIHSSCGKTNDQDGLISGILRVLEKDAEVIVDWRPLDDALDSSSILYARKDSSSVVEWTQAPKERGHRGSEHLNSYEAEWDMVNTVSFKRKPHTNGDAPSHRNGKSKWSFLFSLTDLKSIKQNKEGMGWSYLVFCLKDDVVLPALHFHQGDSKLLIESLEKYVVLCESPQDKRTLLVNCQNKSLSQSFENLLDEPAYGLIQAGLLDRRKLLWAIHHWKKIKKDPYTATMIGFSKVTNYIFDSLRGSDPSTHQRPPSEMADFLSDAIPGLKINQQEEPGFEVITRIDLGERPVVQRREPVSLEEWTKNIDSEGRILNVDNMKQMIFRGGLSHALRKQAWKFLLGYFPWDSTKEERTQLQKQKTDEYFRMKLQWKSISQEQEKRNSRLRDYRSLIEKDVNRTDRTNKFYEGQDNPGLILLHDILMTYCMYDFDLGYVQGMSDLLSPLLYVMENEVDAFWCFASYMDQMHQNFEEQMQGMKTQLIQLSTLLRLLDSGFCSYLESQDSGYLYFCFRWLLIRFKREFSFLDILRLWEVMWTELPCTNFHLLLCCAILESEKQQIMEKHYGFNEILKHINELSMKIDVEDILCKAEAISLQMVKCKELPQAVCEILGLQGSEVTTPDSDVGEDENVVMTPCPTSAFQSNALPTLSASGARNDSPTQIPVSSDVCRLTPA
Outline: as §1

Compound | Liganded (TAPBP Tapasin; TAPBP Res# 440, uniprot O15533) | Liganded ([1]; TBC1D15 Res# 24, uniprot Q8TC07) | 100 Max (TAPBP Tapasin; uniprot O15533) | 100 ave (TAPBP Tapasin; uniprot O15533) | 500 Max (TAPBP Tapasin; uniprot O15533) | 500 ave (TAPBP Tapasin; uniprot O15533) | 100 Max ([1]; uniprot Q8TC07) | 100 ave ([1]; uniprot Q8TC07) | 500 Max ([1]; uniprot Q8TC07) | 500 ave ([1]; uniprot Q8TC07)
COc1ccc2c(c1)CCCN2C(=O)CCl [KB02] | YES | YES | – | – | – | – | – | – | – | –
O=C(CCl)Nc1cc(C(F)(F)F)cc(C(F)(F)F)c1 [KBO3] | – | – | 31.4264 | 28.54 | 68.7451 | 68.7451 | 7.83 | 0.88 | 47.51 | 47.51
